# Assay results published in US20080286393A1, “Method for the enrichment of the polyphenolic contents from unripe fruit rinds of Terminalia belerica and uses thereof” (priority 2007, published 2008).
# Experiments:
# [1] = Oxygen Radical Absorption (or Absorbance) Capacity (ORAC); details: FIG. 6
# Protocol: The antioxidant activity of the light-colored, enriched/concentrated (85%-100%) polyphenolic extract from the dried, unripe fruit rinds of Terminalia belerica was assayed by diphenylpicrylhydrazyl (DPPH), Oxygen Radical Absorption (or Absorbance) Capacity (ORAC) and the hydroxyl radical Absorption (or Absorbance) capacity (HORAC) studies, as per the validated procedures documented in Cosmetics and toiletries. Cosmeceuticals: Jang D I, Lee B J, Jeon C O, Jo N S, Park J H, Cho S Y, Lee H, Koh J S. 1998, J. Agric. Food Chem. (2001), 49, 4619-4626 and J. Agric. Food. […] The ORAC value of the light-colored, enriched/concentrated (85%-100%) polyphenolic extract from the dried, unripe fruit rinds of Terminalia belerica was 6237±640 μMol trolox equivalents/gram while the ORAC value of Vitamin C was 3400 μMol trolox equivalents/gram and that of grape seed extract was 4528 μMol trolox equivalents/gram.
# [2] = Anti-oxidant activity: DPPH scavenging; details: FIG. 5
# Protocol: The antioxidant activity of the light-colored, enriched/concentrated (85%-100%) polyphenolic extract from the dried, unripe fruit rinds of Terminalia belerica was assayed by diphenylpicrylhydrazyl (DPPH), Oxygen Radical Absorption (or Absorbance) Capacity (ORAC) and the hydroxyl radical Absorption (or Absorbance) capacity (HORAC) studies, as per the validated procedures documented in Cosmetics and toiletries. Cosmeceuticals: Jang D I, Lee B J, Jeon C O, Jo N S, Park J H, Cho S Y, Lee H, Koh J S. 1998, J. Agric. Food Chem. (2001), 49, 4619-4626 and J. Agric. Food. Chem. (2002), 50, 2772-2777.)
Compound,ORAC value [1],SC50 scavenging activity [2] [µg/mL]
O=C1O[C@H]([C@@H](O)CO)C(O)=C1O [Vitamin C],3400 μMol trolox equivalents/gram,1.9
"Cc1cc(C(C)(C)C)c(O)c(C(C)(C)C)c1 [BHT, Butylated hydroxyl toluene]",–,4.6
